Measured values: patent US7666639B2, “Plant deoxyribonucleoside kinase enzymes and their use” (priority 2002, dated 2010)

Experiments:
[1] = system: N-terminally deleted tomato dNK enzyme (TOM-ΔNdCK/dGK); test: Deoxyribonucleoside kinase activity in extract of KY895 transformed with pGEX-2T-TOM-ΔNdCK/dGK; type: biochemical, Lycopersicum esculentum; conditions: pGEX-2T-TOM-ΔNdCK/dGK
Method: The E. coli strain KY895 (F^−, tdk-1, ilv) [Knecht W, Munch-Petersen B and Piskur J: Identification of residues involved in the specificity and regulation of the highly efficient multisubstrate deoxyribonucleoside kinase from Drosophila melanogaster; J. Mol. Biol. 2000 301 827-837] was transformed by various expression plasmids using standard techniques. Transformed KY895 strains were grown to an OD600 nm of 0.5-0.6 in LB/Ampicillin (100 μg/ml) medium at 37° C., and protein expression was induced by addition of 100 μM IPTG. The cells were further grown for 4 hours at 25° C. and subsequently harvested by centrifugation.
Pellets were stored at −80° C. until activity testing. Pellets were submitted to brief sonification in extraction buffer (50 mM Tris/HCl pH 7.5, 1 mM DTT, 10% (v/v) glycerol, 1% (v/v) Triton X-100, protease inhibitor cocktail (Complete™ from Roche Diagnostics).
Deoxyribonucleoside kinase activities were determined in the KY895 extracts by initial velocity measurements based on four time samples by the DE-81 filter paper assay using tritium-labelled nucleoside substrates. 4 to 20 μg extracts were used in the assays. The assay was done as described by Munch-Petersen et al. [Munch-Petersen, B., Knecht, W, Lenz, C., Sondergaard, L. & Piskur, J: Functional expression of a multisubstrate deoxyribonucleoside kinase from Drosophila melanogaster and its C-terminal deletion mutants; J. Biol. Chem. 2000 275 6673-6679].
The protein concentration was determined according to Bradford with BSA as standard protein [Bradford M M: A rapid and sensitive method for the quantitation of microgram quantities of protein utilizing the principle of protein-dye binding; Anal. Biochem. 1976 72 248-254]. SDS-PAGE was done according to the procedure of Laemmli [Laemmli U K: Cleavage of structural proteins during the assembly of the head of bacteriophage T4; Nature 1970 227 680-685], and proteins were visualized by Coomassie staining to verify recombinant protein expression.
The four natural deoxyribonucleosides were tested at a fixed concentration of 100 μM. The highest specific activity in each extract was set to 100%.

[2] = system: KY895 cells transformed with pGEX-2T-HSV-TK; test: LD100 for growth of transformed KY895 on nucleoside analog plates, pGEX-2T-HSV-TK; type: cell-based, E. coli; conditions: transformant pGEX-2T-HSV-TK; M9 plates, 24 hours at 37° C.
Method: (§1) Deoxyribonucleoside kinases are of interest as suicide-genes to be used in gene-mediated therapy of cancer or viral infections. In this example the potential of the plant kinases of the invention to convert different nucleoside analogs are compared to that of the human Herpes simplex virus type 1 thymidine kinase (HSV1-TK) in a bacterial test system.
(§2) The experiment was carried out essentially as described by Knecht et al. [Knecht W, Munch-Petersen B and Piskur J: Identification of residues involved in the specificity and regulation of the highly efficient multisubstrate deoxyribonucleoside kinase from Drosophila melanogaster; J. Mol. Biol. 2000 301 827-837]. Briefly, overnight cultures of transformed KY895 were diluted 200-filed in 10% glyercol and 2 μl drops of the dilutions were spotted on M9 minimal medium plates [Ausubel F, Brent R, Kingston R E, Moore D D, Seidman J G, Smith J A & Struhl K (Eds.): Short protocols in molecular biology; 3rd edition (1995) pp. 1-2, Wiley, USA] supplemented with 0.2% glucose, 40 μg/ml isoleucine, 40 μg/ml valine, 100 μg/ml ampicillin and with or without nucleoside analogs. Growth was inspected visually after 24 hours of incubation at 37° C.

[3] = system: KY895 cells transformed with pGEX-2T-TOM-ΔNdCK/dGKΔC; test: LD100 for growth of transformed KY895 on nucleoside analog plates, pGEX-2T-TOM-ΔNdCK/dGKΔC; type: cell-based, E. coli; conditions: transformant pGEX-2T-TOM-ΔNdCK/dGKΔC; M9 plates, 24 hours at 37° C.
Method: as §1, §2

[4] = system: cells transduced with the pLCXSN vector alone; test: Cell proliferation assay - cytotoxicity (XTT), cells transduced with pLCXSN vector alone; type: cell-based, Human; conditions: pLCXSN vector alone versus parental
Method: (§3) Two constructs were obtained: AtdCGK (PZG190) and TomdCGK (PZG193). LCXSN alone was used as a control.
(§4) The virus containing medium was subsequently used to transduce the cancer cell lines with a MOI of 5.
(§5) Human breast MCF-7 (ATCC HTB-22) and Glioblastoma U-118-MG (ATCC HTB-15) cancer cells were purchased from the American Type Culture Collection. Cells were cultured in RPMI, E-MEM or D-MEM (Cambrex, Bio Whittaker Cat. No. 12-115-F, 12-611 and 12-741-F) with 10% (v/v) Australian originated fetal calf serum (Cambrex, Bio Whittaker Cat. No. 12-611) and 1 ml/l of Gentamicin (Cambrex, Bio Whittaker Cat. No. 17-518). Cells were grown at 37° C. in a humidified incubator with a gas phase of 5% CO2. […]
(§6) Cells were plated at densities range of 1.500-3.500 cells/well in 96-well plates coated with Poly-L-lysine (Sigma Cat. No. P6282) Gemcitabine (obtained from Orifarm A/S—DK) was added after 24 hours of incubation at 37° C., 5% CO2, and the medium containing the nucleoside analog. […] The IC50 value of the investigated drug/compound was calculated as the mean of these experiments using SigmaPlot®) (SPSS Science, Dyrberg Traiding—DK).
(§7) The sensitivity of the untransduced cells, and of the cells transduced with either the retroviral vector alone ore the vector containing plant kinases for Gemcitabine was determined.
(§8) The cytotoxicity (IC50 value) was determined after 96-120 hours of drug exposure.

[5] = system: KY895 cells transformed with pGEX-2T-TOM-dCK/dGKΔC; test: LD100 for growth of transformed KY895 on nucleoside analog plates, pGEX-2T-TOM-dCK/dGKΔC; type: cell-based, E. coli; conditions: transformant pGEX-2T-TOM-dCK/dGKΔC; M9 plates, 24 hours at 37° C.
Method: as §1, §2

[6] = system: KY895 cells transformed with pGEX-2T-AT-dCK/dGK; test: LD100 for growth of transformed KY895 on nucleoside analog plates, pGEX-2T-AT-dCK/dGK; type: cell-based, E. coli
Method: as §1, §2

[7] = system: KY895 cells transformed with pGEX-2T-TOM-dCK/dGK; test: LD100 for growth of transformed KY895 on nucleoside analog plates, pGEX-2T-TOM-dCK/dGK; type: cell-based, E. coli
Method: as §1, §2

[8] = system: breast MCF-7 cells transduced with PZG193 (TomdCGK); test: Cell proliferation assay - cytotoxicity (XTT), MCF-7 transduced with PZG193; type: cell-based, Human
Method: as §3, §4, §5, §6, §7, §8

[9] = system: Glioblastoma U-118-MG cells transduced with PZG190 (AtdCGK); test: Cell proliferation assay - cytotoxicity (XTT), U-118-MG transduced with PZG190; type: cell-based; conditions: Homo sapiens; U-118-MG PZG190; 96-120 hours of drug exposure
Method: as §3, §4, §5, §6, §7, §8

[10] = system: KY895 cells transformed with pGEX-2T; test: LD100 for growth of transformed KY895 on nucleoside analog plates, pGEX-2T; type: cell-based, E. coli; conditions: transformant pGEX-2T; M9 plates, 24 hours at 37° C.
Method: as §1, §2

[11] = system: breast MCF-7 cells, parental; test: Cell proliferation assay - cytotoxicity (XTT), MCF-7 parental; type: cell-based; conditions: Homo sapiens, MCF7, 96-120 hours of drug exposure
Method: (§9) Human breast MCF-7 (ATCC HTB-22) and Glioblastoma U-118-MG (ATCC HTB-15) cancer cells were purchased from the American Type Culture Collection. Cells were cultured in RPMI, E-MEM or D-MEM (Cambrex, Bio Whittaker Cat. No. 12-115-F, 12-611 and 12-741-F) with 10% (v/v) Australian originated fetal calf serum (Cambrex, Bio Whittaker Cat. No. 12-611) and 1 ml/l of Gentamicin (Cambrex, Bio Whittaker Cat. No. 17-518). Cells were grown at 37° C. in a humidified incubator with a gas phase of 5% CO2.
as §6, with “analog. Each experiment was performed in four replicates. Cell survival was assayed after 96-120 hours of drug exposure, by XTT cell proliferation kit (X) kit II, Roche Cat. No. 1 465 015).” for “analog.”
as §7, §8

[12] = system: KY895 cells transformed with pGEX-2T-TOM-ΔNdCK/dGK; test: LD100 for growth of transformed KY895 on nucleoside analog plates, pGEX-2T-TOM-ΔNdCK/dGK; type: cell-based, E. coli
Method: as §1, §2

[13] = system: breast MCF-7 cells transduced with PZG190 (AtdCGK); test: Cell proliferation assay - cytotoxicity (XTT), MCF-7 transduced with PZG190; type: cell-based, Human
Method: as §3, §4, §5, §6, §7, §8

[14] = system: Glioblastoma U-118-MG cells, parental; test: Cell proliferation assay - cytotoxicity (XTT), U-118-MG parental; type: cell-based; conditions: Homo sapiens, 96-120 hours of drug exposure
Method: as §9
as §6, with “analog. Each experiment was performed in four replicates. Cell survival was assayed after 96-120 hours of drug exposure, by XTT cell proliferation kit (X) kit II, Roche Cat. No. 1 465 015).” for “analog.”
as §7, §8

Compound	ability to phosphorylate the deoxyribonucleoside (in words) [1]	LD100 for growth of transformed KY895 cells [2]	LD100 for growth of transformed KY895 cells [3]	difference in sensitivity between the parental cell line and cells transduced with the pLCXSN vector alone [4]	LD100 for growth of transformed KY895 cells [5]	LD100 fold lower than that of HSV1-TK ([6]; KY895 with AT-dCK/dGK versus HSV1-TK)	LD100 for growth of transformed KY895 cells ([6]; transformant pGEX-2T-AT-dCK/dGK, M9 plates, 24 hours at 37° C.)	killed at fold lower concentrations than cells transformed with pGEX-2T-HSV-TK or pGEX-2T ([7]; KY895 with expression plasmid for TOM-dCK/dGK)	LD100 for growth of transformed KY895 cells ([7]; transformant pGEX-2T-TOM-dCK/dGK, M9 plates, 24 hours at 37° C.)	IC50 ([8]; Homo sapiens, MCF7, MCF-7 PZG193, 96-120 hours of drug exposure)	Sensitivity factor ([8]; MCF-7 PZG193 compared to the parental cell line)	IC50 [9]	LD100 for growth of transformed KY895 cells [10]	IC50 [11]	killed at fold lower concentrations than cells transformed with pGEX-2T-HSV-TK or pGEX-2T ([12]; KY895 with expression plasmid for TOM-ΔNdCK/dGK)	LD100 for growth of transformed KY895 cells ([12]; transformant pGEX-2T-TOM-ΔNdCK/dGK, M9 plates, 24 hours at 37° C.)	IC50 ([13]; Homo sapiens, MCF7, MCF-7 PZG190, 96-120 hours of drug exposure)	Sensitivity factor ([13]; MCF-7 PZG190 compared to the parental cell line)	IC50 [14]
Nc1ncnc2c1ncn2[C@H]1C[C@H](O)[C@@H](CO)O1 [dAdo, deoxyadenosine]	able to phosphorylate	–	–	–	–	–	–	–	–	–	–	–	–	–	–	–	–	–	–
Nc1ccn([C@@H]2O[C@H](CO)[C@@H](O)C2(F)F)c(=O)n1 [dFdC, 2′,2′-difluorodeoxycytidine]	–	100 µM	100 µM	less than 1 fold	100 µM	10000 fold	0.01 µM	10 fold	10 µM	402 nM	8-fold	0.3 nM	100 µM	3120 nM	10 fold	10 µM	500 nM	6-fold	6.2 nM
